≈ marks a conversion by molar mass, not a printed value. Where two headings read alike, the source gives them in different places. Numbered stars: 1 amine (or outer) side, 2 acyl side, 3 side chain; on linkers, the order of the positions; unused ones are H or OH. Bridge positions count the residues as written; N and C are the ends. Peptide text beside a SMILES is read from it. I, II: the chains in the order shown. X2 = c1ccc([Si](O[*:1])(O[*:2])c2ccccc2)cc1; OSiEt2O = CC[Si](CC)(O[*:1])O[*:2]
Columns and labels:
Medulloblastome = assay: Effect on medulloblastomas
BxPC3 - Pankreaskrebs = assay: MTT assay / EZ4U test, 4 days; type: cell-based; conditions: Homo sapiens
Experimental: (§1) Die Silane 1, 5, 9, 10, 11, 13, 15, 16 wurden in Ethanol gelöst und in MTT Assays in einer anfänglichen Konzentration von 200 µg/ml (5 Lösungsschritte 200 - 12.5 µg/ml) verwendet. Die Platten wurde für eine Dauer.von 4 Tagen inkubiert und die Entwicklungsfähigkeit mithilfe des EZ4U Test bestimmt. Die IC50 Werte wurden ausgehend von Dosierungs-Reaktions-Linien berechnet Zelllinien: Colo 205 and HT29 - Kolonkarzinom; BxPC3 and MIAPaCa2 - Pankreaskrebs; CRO2B - karzinoid, A431 Epidermalkarzinom; normale Zellen: WI38 - humane embryonale Fibroblasten; NIH3T3 - mausartige Fibroblasten; IEC6 - mausartige Enterozyten.

A431 Epidermalkarzinom = assay: MTT assay / EZ4U test, 4 days; type: cell-based; conditions: Homo sapiens
Experimental: as §1

CRO2B - karzinoid = assay: MTT assay / EZ4U test, 4 days; type: cell-based; conditions: read-out: IC50 CR02B
Experimental: as §1

[1] = system: WI38 - humane embryonale Fibroblasten; assay: MTT assay / EZ4U test, 4 days; type: cell-based; conditions: Homo sapiens
Experimental: as §1

HT29 - Kolonkarzinom = assay: MTT assay / EZ4U test, 4 days; type: cell-based; conditions: Homo sapiens
Experimental: as §1

[2] = system: IEC6 - mausartige Enterozyten; assay: MTT assay / EZ4U test, 4 days; type: cell-based; conditions: Rattus norvegicus
Experimental: as §1

MIAPaCa2 - Pankreaskrebs = assay: MTT assay / EZ4U test, 4 days; type: cell-based; conditions: Homo sapiens
Experimental: as §1

[3] = system: NIH3T3 - mausartige Fibroblasten; assay: MTT assay / EZ4U test, 4 days; type: cell-based; conditions: Mus musculus
Experimental: as §1

[4] = system: Panc1 Pankreaskrebszellen; assay: subG1 apoptotic fraction, propidium iodide, flow cytometry; type: cell-based; conditions: 50 µg/ml, 4 Tage
Experimental: (§2) Die Zellen (IEC6 mausartige Enterozyten; Panc1 Pankreaskrebszellen; Colo205 Kolonkarzinom) wurden mit 50 µg/ml Silanen inkubiert und nach 4-tägiger Aussetzung auf DNA eingefärbt (Propidiumiodid). Die SubG1 Zellteilung wurde mittels Durchflusscytometrie bestimmt.

[5] = system: IEC6 mausartige Enterozyten; assay: as above; type: cell-based; conditions: 50 µg/ml, 4 Tage
Experimental: as §2

Colo205 Kolonkarzinom = assay: as above; type: cell-based; conditions: 50 µg/ml, 4 Tage
Experimental: as §2

T47D (Brustkrebs) = assay: MTT test, triplicate, two-fold dilutions; type: cell-based; conditions: Homo sapiens, T47D, read-out: IC50 T47D
Experimental: (§3) Die Silan wurden in Ethanol aufgelöst und in Zellkulturmedien in Konzentrationen von bis zu 500 µg/ml resuspendiert. Es wurden MTT Tests in dreifacher Ausführung durchgeführt, für welche doppelte Lösungen (7 Schritte) und colo205 (Kofon-Karzinom), BxPC3 (pankreatisches Adenokarzinom) sowie T47D (Brustkrebs) benutzt wurden.

[6] = system: BxPC3 (pankreatisches Adenokarzinom); assay: MTT test, triplicate, two-fold dilutions; type: cell-based; conditions: Homo sapiens
Experimental: as §3

colo205 (Kofon-Karzinom) = assay: MTT test, triplicate, two-fold dilutions; type: cell-based; conditions: Homo sapiens
Experimental: as §3

Normale Zellen = assay: Mean IC50 over all normal cell lines; type: cell-based; conditions: read-out: IC50 Normale Zellen (Durchschnitt ± SD)
Experimental: as §1
(§4) Mittelwerte-IC50 für alle Krebs- oder normalen Zelllinien: […]

Krebszellen = assay: Mean IC50 over all cancer cell lines; type: cell-based; conditions: read-out: IC50 Krebszellen (Durchschnitt ± SD)
Experimental: as §1, §4

Maus = assay: Pharmacological observation in the mouse (central, vegetative and toxic effects, acute toxicity); type: in vivo
Text: Pharmakologische Untersuchungen an der Maus
Die Verbindungen wurden an der Maus auf zentrale, vegetative und toxische Effekte geprüft. Durch systemische Einzelbeobachtungen sind neben der akuten Toxizität (orienberende letale Dosis, oLD) zentrale und vegetative Wirkungen der Testsubstanzen, insbesondere Effekte auf die Motorik und das Reaktionsvermögen, die Haut- und Rektaltemperatur sowie auf die Pupillenmotorik erfasst worden. Die getesteten Dosierungen betrugen 5 •10^-4, 1 • 10^-3 und 5 • 10^-3 mol/kg Körpergewicht Letale Wirkungen konnten bei keiner der Verbindungen beobachtet werden. Die oLD lag für Di(tetradecanoyloxy)dimethylsilan und Di(octadecanoyloxy)dimethylsilan unter 1 • 10^-3 mol/kg Körpergewicht für alle übrigen Verbindungen unter 5 • 10^-3 mollkg Körpergewicht.

Osteosarkome = assay: Effect on osteosarcomas

`CC[Si](CC)(OC(=O)[C@H](Cc1ccccc1)NC(=O)[C@H](Cc1ccccc1)NC(=O)[C@H](Cc1ccccc1)NC(=O)[C@H](Cc1ccccc1)NC(=O)[C@H](Cc1ccccc1)NC(=O)[C@H](Cc1ccccc1)NC(=O)[C@H](Cc1ccccc1)NC(=O)[C@H](Cc1ccccc1)NC(=O)[C@@H](N)Cc1ccccc1)OC(=O)[C@H](Cc1ccccc1)NC(=O)[C@H](Cc1ccccc1)NC(=O)[C@H](Cc1ccccc1)NC(=O)[C@H](Cc1ccccc1)NC(=O)[C@H](Cc1ccccc1)NC(=O)[C@H](Cc1ccccc1)NC(=O)[C@H](Cc1ccccc1)NC(=O)[C@H](Cc1ccccc1)NC(=O)[C@@H](N)Cc1ccccc1` [Diethyl bis(nonaphenylalanyl)silylester] (I: H-FFFFFFFFF / II: H-FFFFFFFFF; linker I:C-II:C via OSiEt2O) was tested, and the “Wirkung gegen Medulloblastome” value (Medulloblastome) was “zeigen eine Wirkung”.

With `N[C@@H](Cc1ccccc1)C(=O)N[C@@H](Cc1ccccc1)C(=O)N[C@@H](Cc1ccccc1)C(=O)N[C@@H](Cc1ccccc1)C(=O)N[C@@H](Cc1ccccc1)C(=O)N[C@@H](Cc1ccccc1)C(=O)N[C@@H](Cc1ccccc1)C(=O)O[Si](OC(=O)[C@H](Cc1ccccc1)NC(=O)[C@H](Cc1ccccc1)NC(=O)[C@H](Cc1ccccc1)NC(=O)[C@H](Cc1ccccc1)NC(=O)[C@H](Cc1ccccc1)NC(=O)[C@H](Cc1ccccc1)NC(=O)[C@@H](N)Cc1ccccc1)(c1ccccc1)c1ccccc1` [Diphenyl bis(heptaphenylalanyl)silylester] (I: H-FFFFFFF / II: H-FFFFFFF; linker I:C-II:C via X2) the “Wirkung auf Plasmozytome” value (Plasmozytome) was “zeigen eine Wirkung”.

`N[C@@H](Cc1ccccc1)C(=O)N[C@@H](Cc1ccccc1)C(=O)N[C@@H](Cc1ccccc1)C(=O)N[C@@H](Cc1ccccc1)C(=O)N[C@@H](Cc1ccccc1)C(=O)N[C@@H](Cc1ccccc1)C(=O)O[Si](OC(=O)[C@H](Cc1ccccc1)NC(=O)[C@H](Cc1ccccc1)NC(=O)[C@H](Cc1ccccc1)NC(=O)[C@H](Cc1ccccc1)NC(=O)[C@H](Cc1ccccc1)NC(=O)[C@@H](N)Cc1ccccc1)(c1ccccc1)c1ccccc1` [Diphenyl bis(hexaphenylalanyl)silylester] (I: H-FFFFFF / II: H-FFFFFF; linker I:C-II:C via X2) was tested, and the “Wirkung auf Plasmozytome” value (Plasmozytome) was “zeigen eine Wirkung”.

With `N[C@@H](Cc1ccccc1)C(=O)N[C@@H](Cc1ccccc1)C(=O)N[C@@H](Cc1ccccc1)C(=O)N[C@@H](Cc1ccccc1)C(=O)N[C@@H](Cc1ccccc1)C(=O)N[C@@H](Cc1ccccc1)C(=O)N[C@@H](Cc1ccccc1)C(=O)N[C@@H](Cc1ccccc1)C(=O)N[C@@H](Cc1ccccc1)C(=O)O[Si](OC(=O)[C@H](Cc1ccccc1)NC(=O)[C@H](Cc1ccccc1)NC(=O)[C@H](Cc1ccccc1)NC(=O)[C@H](Cc1ccccc1)NC(=O)[C@H](Cc1ccccc1)NC(=O)[C@H](Cc1ccccc1)NC(=O)[C@H](Cc1ccccc1)NC(=O)[C@H](Cc1ccccc1)NC(=O)[C@@H](N)Cc1ccccc1)(c1ccccc1)c1ccccc1` [Diphenyl bis(nonaphenylalanyl)silylester] (I: H-FFFFFFFFF / II: H-FFFFFFFFF; linker I:C-II:C via X2) the “Wirkung auf Plasmozytome” value (Plasmozytome) was “zeigen eine Wirkung”.

`N[C@@H](Cc1ccccc1)C(=O)N[C@@H](Cc1ccccc1)C(=O)N[C@@H](Cc1ccccc1)C(=O)N[C@@H](Cc1ccccc1)C(=O)N[C@@H](Cc1ccccc1)C(=O)N[C@@H](Cc1ccccc1)C(=O)N[C@@H](Cc1ccccc1)C(=O)N[C@@H](Cc1ccccc1)C(=O)O[Si](OC(=O)[C@H](Cc1ccccc1)NC(=O)[C@H](Cc1ccccc1)NC(=O)[C@H](Cc1ccccc1)NC(=O)[C@H](Cc1ccccc1)NC(=O)[C@H](Cc1ccccc1)NC(=O)[C@H](Cc1ccccc1)NC(=O)[C@H](Cc1ccccc1)NC(=O)[C@@H](N)Cc1ccccc1)(c1ccccc1)c1ccccc1` [Diphenyl bis(octaphenylalanyl)silylester] (I: H-FFFFFFFF / II: H-FFFFFFFF; linker I:C-II:C via X2) was tested, and the “Wirkung auf Plasmozytome” value (Plasmozytome) was “zeigen eine Wirkung”.

For `NCC(=O)NCC(=O)NCC(=O)NCC(=O)O[Si](OC(=O)CNC(=O)CNC(=O)CNC(=O)CN)(c1ccccc1)c1ccccc1` [Diphenyl bis(tetraglycyl)silylester], the “Wirkung auf Plasmozytome” value (Plasmozytome) was “zeigen eine Wirkung”.

With `N[C@@H](Cc1ccccc1)C(=O)N[C@@H](Cc1ccccc1)C(=O)N[C@@H](Cc1ccccc1)C(=O)N[C@@H](Cc1ccccc1)C(=O)O[Si](OC(=O)[C@H](Cc1ccccc1)NC(=O)[C@H](Cc1ccccc1)NC(=O)[C@H](Cc1ccccc1)NC(=O)[C@@H](N)Cc1ccccc1)(c1ccccc1)c1ccccc1` [Diphenyl bis(tetraphenylalanyl)silylester] the “Wirkung auf Plasmozytome” value (Plasmozytome) was “zeigen eine Wirkung”.

In the case of `N[C@@H](Cc1ccccc1)C(=O)N[C@@H](Cc1ccccc1)C(=O)N[C@@H](Cc1ccccc1)C(=O)O[Si](OC(=O)[C@H](Cc1ccccc1)NC(=O)[C@H](Cc1ccccc1)NC(=O)[C@@H](N)Cc1ccccc1)(c1ccccc1)c1ccccc1` [Diphenyl bis(triphenylalanyl)silylester], the “Wirkung auf Plasmozytome” value (Plasmozytome) is reported as “zeigen eine Wirkung”.

`CCCCCCCCCCCCCCCC(=O)O[Si](CC)(CC)OC(=O)CCCCCCCCCCCCCCC` [Si11, Di (hexadecanoyloxy) diethylsilan] was tested, and the IC50 (BxPC3 - Pankreaskrebs; BXPC-3, read-out: IC50 BxPC3) was 20 µg/mL (≈ 33.5 µM), the IC50 (A431 Epidermalkarzinom; A-431, read-out: IC50 A431) was 21.9 µg/mL (≈ 36.7 µM) and the IC50 (CRO2B - karzinoid) was 18.9 µg/mL (≈ 31.7 µM). The IC50 ([1]; WI-38, read-out: IC50 WI38) was 23.7 µg/mL (≈ 39.7 µM), the IC50 (HT29 - Kolonkarzinom; HT-29, read-out: IC50 HT29) was 23.1 µg/mL (≈ 38.7 µM) and the IC50 ([2]; IEC-6, read-out: IC50 IEC6) was 21.2 µg/mL (≈ 35.5 µM). The IC50 (MIAPaCa2 - Pankreaskrebs; MIA PaCa-2, read-out: IC50 MlAPaCa2) was 82.5 µg/mL (≈ 138 µM), the IC50 ([3]; NIH3T3, read-out: IC50 NIH3T3) was 25 µg/mL (≈ 41.9 µM) and the “subG1 apoptotische Zellteilung Panc1” value [4] was 37,7 ± 1,8. For the same compound, the “subG1 apoptotische Zellteilung IEC6” value [5] was 7.0 ± 0,14, the “subG1 apoptotische Zellteilung Colo205” value (Colo205 Kolonkarzinom) was 3,3 ± 0,14 and the IC50 (T47D (Brustkrebs)) was 7 µg/mL (≈ 11.7 µM). For the same compound, the IC50 ([6]; BXPC-3, read-out: IC50 BxPC3) was 10 µg/mL (≈ 16.7 µM), the IC50 (colo205 (Kofon-Karzinom); COLO 205, read-out: IC50 Colo205) was 300 µg/mL (≈ 502 µM) and the IC50 (Normale Zellen) was 23.3 µg/mL (≈ 39 µM). It also gave an IC50 (Krebszellen) of 21.1 µg/mL (≈ 35.3 µM).

In the case of `CCCCCCCCCCCCCCCC(=O)O[Si](C)(C)OC(=O)CCCCCCCCCCCCCCC` [Si16, Di (hexadecanoyloxy) dimethylsilan], the IC50 (BxPC3 - Pankreaskrebs; BXPC-3, 200 - 12.5 µg/ml, 4 Tage, read-out: IC50 BxPC3) is reported as 12.5 µg/mL (≈ 22 µM), the IC50 (A431 Epidermalkarzinom; A-431, 200 - 12.5 µg/ml, 4 Tage, read-out: IC50 A431) is reported as 34.5 µg/mL (≈ 60.6 µM) and the IC50 (CRO2B - karzinoid; 200 - 12.5 µg/ml, 4 Tage) is reported as 31.5 µg/mL (≈ 55.4 µM). It also gave an IC50 ([1]; WI-38, 200 - 12.5 µg/ml, 4 Tage, read-out: IC50 WI38) of 36 µg/mL (≈ 63.3 µM), an IC50 (HT29 - Kolonkarzinom; HT-29, 200 - 12.5 µg/ml, 4 Tage, read-out: IC50 HT29) of 34.4 µg/mL (≈ 60.5 µM) and an IC50 ([2]; IEC-6, 200 - 12.5 µg/ml, 4 Tage, read-out: IC50 IEC6) of 17.2 µg/mL (≈ 30.2 µM). For the same compound, the IC50 (MIAPaCa2 - Pankreaskrebs; MIA PaCa-2, 200 - 12.5 µg/ml, 4 Tage, read-out: IC50 MlAPaCa2) was 400 µg/mL (≈ 703 µM), the IC50 ([3]; NIH3T3, 200 - 12.5 µg/ml, 4 Tage, read-out: IC50 NIH3T3) was 42.5 µg/mL (≈ 74.7 µM) and the “subG1 apoptotische Zellteilung Panc1” value [4] was 22,2 ± 1,6. The “subG1 apoptotische Zellteilung IEC6” value [5] was 2,45±0,21, the “subG1 apoptotische Zellteilung Colo205” value (Colo205 Kolonkarzinom) was 3,55 ± 0,07 and the “zentrale, vegetative und toxische Effekte (Verhaltensänderungen)” value (from here on “zentrale … (Verhaltensänderungen)”) (Maus; 1•10^-3 mol/kg) was “keine Verhaltensänderungen”. For the same compound, the “zentrale … (Verhaltensänderungen)” value (Maus; 5•10^-3 mol/kg) was “Ataxie, Piloerektion, Grifistärkesenkung”, the “zentrale … (Verhaltensänderungen)” value (Maus; 5•10^-4 mol/kg) was “keine Verhaltensänderungen” and the IC50 (T47D (Brustkrebs); up to 500 µg/ml) was 15 µg/mL (≈ 26.4 µM). For the same compound, the IC50 ([6]; BXPC-3, up to 500 µg/ml, read-out: IC50 BxPC3) was 45 µg/mL (≈ 79.1 µM), the IC50 (colo205 (Kofon-Karzinom); COLO 205, up to 500 µg/ml, read-out: IC50 Colo205) was 500 µg/mL (≈ 879 µM) and the “Wirkung auf Osteosarkome” value (Osteosarkome) was “zeigen eine Wirkung”. It also gave an IC50 (Normale Zellen; mean over normal cell lines) of 31.9 µg/mL (≈ 56.1 µM) and an IC50 (Krebszellen; mean over cancer cell lines) of 28.2 µg/mL (≈ 49.6 µM).
